Assay [1] deals with N. farcinica ATCC 3318. Briefly: Colony forming unit (CFU) assay against N. farcinica. The format is cell-based, Nocardia farcinica. Conditions: for LD90: lowest concentration leading to 90% reduction of CFU, 1 × 10^7 CFU/ml in 10 mM sodium phosphate buffer pH 7.4 + 1% MHB, means of at least four (levofloxacin, HNP 1-3, LL-37, hBD-3) or two (indolicidin, LAP, TAP) independent experiments. How it is done:
(§1) Four strains of the genus Nocardia were investigated: Nocardia farcinica (ATCC 3318), Nocardia nova (ATCC 33726), Nocardia asteroides (ATCC 19247) and Nocardia brasiliensis (ATCC 19296). Strains were grown on Columbia blood agar for at least 72 hours at 37°C. Then 30 ml of Mueller-Hinton-broth (MHB) supplemented with 1% Tween 80 (Serva, Heidelberg, Germany) was inoculated with one loop of bacteria scraped off the agar plates. MHB was incubated in a shake incubator (220 rpm at 37°C). 10 ml of the culture was transferred to a 50 ml tube which contained 1 mm glass beads (BioSpec Products, Bartlesville, USA). After vortexing for 10-15 seconds a homogenous suspension could be gained. A few millilitres of the suspension were used to inoculate another 50 ml of MHB (also supplemented with 1% Tween 80). Cultures were incubated until mid-logarithmic phase was reached. Incubation times were different for each Nocardia species (N. farcinica 12 h, N. nova 24 h, N. asteroides 16 h, N. brasiliensis 72 h).
(§2) A colony forming unit (CFU) assay was established and performed to test AMP susceptibility. Mid-logarithmic growth phase cultures were washed twice in 10 mM sodium phosphate buffer (ph 7.4). A standard inoculum of 1 × 10^7CFU/ml in 10 mM sodium phosphate buffer supplemented with 1% MHB was prepared. 80 μl of the standard inoculum were incubated with 20 μl of the respective concentrations of the antimicrobial agents in the shake incubator at 37°C for 12 h (N. farcinica) to 16 h (N. nova, N. asteroides and N. brasiliensis). Incubation was carried out in 2 ml tubes (Eppendorf, Hamburg, Germany) which were occluded by LidBacs (Eppendorf, Hamburg, Germany) to avoid contamination and provide constant aerobic conditions. After incubation serial dilutions were plated on Mueller-Hinton agar plates and visible colonies were counted after 48-72 hours of incubation at 37°C. Killing was expressed in percentage of bacteria that were killed by incubation with respective peptide concentrations compared to incubation with solvent of the antibacterial substance (0,01% acetic acid or water). LD90 denotes the lowest peptide concentration leading to a =90% reduction of CFU counts. […] Killing activity (CFU counts after incubation with solvent vs. CFU counts after incubation with highest concentration of AMPs or levofloxacin) was analysed by Student's t-test. A p-value < 0.05 was considered significant.

Assay [2] deals with N. nova ATCC 33726. Put plainly: Colony forming unit (CFU) assay against N. nova. The format is cell-based, Nocardia nova. Conditions: for antinocardial activity (in words): CFU assay; for antinocardial activity (in words) / LD90: 16 h; for LD90: lowest concentration leading to 90% reduction of CFU, 1 × 10^7 CFU/ml in 10 mM sodium phosphate buffer pH 7.4 + 1% MHB, 37°C, means of at least four or two (indolicidin) independent experiments; for killing/CFU reduction in percent ± SD: ATCC 33726, 16 h. As to the method:
as §1, §2

Assay [3] concerns N. asteroides ATCC 19247. Briefly: Colony forming unit (CFU) assay against N. asteroides. Conditions: for antinocardial activity (in words): CFU assay; for LD90: lowest concentration leading to 90% reduction of CFU, 1 × 10^7 CFU/ml in 10 mM sodium phosphate buffer pH 7.4 + 1% MHB, means of at least four or two (indolicidin) independent experiments. The format is cell-based, Nocardia asteroides. How it is done:
as §1, §2

In assay [4] the test system is N. brasiliensis ATCC 19296. Put plainly: Colony forming unit (CFU) assay against N. brasiliensis. Conditions: for antinocardial activity (in words) / growth of N. brasiliensis after incubation (in words): CFU assay; for antinocardial activity (in words): concentrations up to 64 μg/ml; for LD90: lowest concentration leading to 90% reduction of CFU, 1 × 10^7 CFU/ml in 10 mM sodium phosphate buffer pH 7.4 + 1% MHB, means of at least four or two (indolicidin, LAP, TAP) independent experiments; for growth of N. brasiliensis after incubation (in words): data not shown. The format is cell-based, Nocardia brasiliensis. How it is done: as §1, §2

The mark [5] stands for this setting: at the LD90 concentration, 12 h, 37°C, mean ± SD of at least four or two (indolicidin, LAP, TAP) independent experiments.
The mark [6] stands for this setting: at the LD90 concentration, 16 h, 37°C, mean ± SD of at least four or two (indolicidin) independent experiments.

Positions of bridges follow the written chain, without caps; N, C: chain ends. Residues, ends and D or L forms follow the SMILES beside them. No end group written: not given here.

Consider `C[C@H]1COc2c(N3CCN(C)CC3)c(F)cc3c(=O)c(C(=O)O)cn1c23` [Levofloxacin, reference compound], for which the “antinocardial activity (in words)” value in assay [1] (CFU assay, 12 h) is on record as “dose-dependent activity”; in assay [2] it was “dose-dependent activity”; in assay [3] (16 h), “dose-dependent activity”; in assay [4] (16 h) it was “dose-dependent activity”. Besides, the figures for the “killing/CFU reduction in percent ± SD” value in assay [1] (setting [5]), in assay [3] (setting [6]) and in assay [4] (setting [6]) were 92.3 ± 3.8%, 92.6 ± 3.8% and 96.6 ± 2.2%, respectively. Besides, the LD90 in assay [1] (37°C, 12 h) was 8 µg/mL; in assay [2], above 32 µg/mL; in assay [3] (37°C, 16 h), 8 µg/mL; in assay [4] (37°C, 16 h) it was 32 µg/mL.
On to `CC[C@H](C)[C@H](NC(=O)[C@H](CCCCN)NC(=O)[C@H](CCC(=O)O)NC(=O)[C@H](CCCCN)NC(=O)[C@H](CO)NC(=O)[C@H](CCCCN)NC(=O)[C@H](CCCNC(=N)N)NC(=O)[C@H](Cc1ccccc1)NC(=O)[C@H](Cc1ccccc1)NC(=O)[C@H](CC(=O)O)NC(=O)CNC(=O)[C@H](CC(C)C)NC(=O)[C@@H](N)CC(C)C)C(=O)NCC(=O)N[C@@H](CCCCN)C(=O)N[C@@H](CCC(=O)O)C(=O)N[C@@H](Cc1ccccc1)C(=O)N[C@@H](CCCCN)C(=O)N[C@@H](CCCNC(=N)N)C(=O)N[C@H](C(=O)N[C@H](C(=O)N[C@@H](CCC(N)=O)C(=O)N[C@@H](CCCNC(=N)N)C(=O)N[C@H](C(=O)N[C@@H](CCCCN)C(=O)N[C@@H](CC(=O)O)C(=O)N[C@@H](Cc1ccccc1)C(=O)N[C@@H](CC(C)C)C(=O)N[C@@H](CCCNC(=N)N)C(=O)N[C@@H](CC(N)=O)C(=O)N[C@@H](CC(C)C)C(=O)N[C@H](C(=O)N1CCC[C@H]1C(=O)N[C@@H](CCCNC(=N)N)C(=O)N[C@H](C(=O)N[C@@H](CCC(=O)O)C(=O)N[C@@H](CO)C(=O)O)[C@@H](C)O)C(C)C)[C@@H](C)CC)C(C)C)[C@@H](C)CC` [LL-37], for which, in assay [1] (16 μg/ml peptide alone, single assay (Figure 2)), the CFU reduction was 68.5%. For the same molecule, the “antinocardial activity (in words)” value in assay [2] is recorded as “more potent against N. nova than levofloxacin”; in assay [3] (16 h), “did not show antinocardial activity”; in assay [4] (16 h) it was “resistant”. Further, the LD90 in assay [2] was 32 µg/mL; in assay [3] (37°C, 16 h), above 64 µg/mL; in assay [4] (37°C, 16 h), above 64 µg/mL. The “growth of N. brasiliensis after incubation (in words)” value (from here on “growth of N. brasiliensis”) in assay [4] (16 h) was “stronger growth”.
On to `CC[C@H](C)[C@@H]1NC(=O)CNC(=O)[C@H](CCCCN)NC(=O)[C@H](CC(N)=O)NC(=O)[C@H](CCCNC(=N)N)NC(=O)[C@H](C(C)C)NC(=O)[C@@H](NC(=O)[C@H](CO)NC(=O)[C@@H](NC(=O)[C@@H]2CCCN2C(=O)[C@@H](N)CC(N)=O)C(C)C)CSSC[C@@H]2NC(=O)[C@H](CCCCN)NC(=O)[C@H](C(C)C)NC(=O)[C@H](C)NC(=O)[C@H](CCCNC(=N)N)NC(=O)CNC(=O)[C@H](C(C)C)NC(=O)[C@@H]3CSSC[C@H](NC1=O)C(=O)N[C@@H](C(C)C)C(=O)N1CCC[C@H]1C(=O)N[C@@H]([C@@H](C)CC)C(=O)N[C@@H](CCCNC(=N)N)C(=O)N[C@@H](CSSC[C@@H](C(=O)N[C@@H](CCCNC(=N)N)C(=O)N[C@@H](CCCCN)C(=O)N[C@@H](CCCCN)C(=O)O)NC2=O)C(=O)N1CCC[C@H]1C(=O)NCC(=O)N[C@@H](CO)C(=O)N[C@@H](CCSC)C(=O)N[C@@H](CCCCN)C(=O)N[C@@H](CCC(N)=O)C(=O)N[C@@H]([C@@H](C)CC)C(=O)NCC(=O)N[C@@H]([C@@H](C)O)C(=O)N3` [TAP] (H-NPVSCVRNKGICVPIRCPGSMKQIGTCVGRAVKCCRKK-OH; disulfide 5-34, 12-27, 17-35 (inferred); N-terminus and C-terminus assumed), for which the “killing/CFU reduction in percent ± SD” value in assay [1] (setting [5]) is listed as 94 ± 5.1%. Besides, the LD90 in assay [1] (37°C, 12 h) turned out to be 32 µg/mL. Further, in assay [4] (16 h), the “antinocardial activity (in words)” value is “resistant” and the “growth of N. brasiliensis” value was “pronounced growth”.
In the case of “LAP: bovine β-defensin lingual antimicrobial peptide, synthesized and oxidatively folded (VRNSQSCRRNKGICVPIRCPGSMRQIGTCLGAQVKCCRRK; disulfide (positions not given here); UniProt Q28880 25-64, looked up)”, in assay [1] (setting [5]), the “killing/CFU reduction in percent ± SD” value was determined as 92.9 ± 7.1%. For the same molecule, the LD90 in assay [1] (37°C, 12 h) is 16 µg/mL. In assay [4] (16 h), the “antinocardial activity (in words)” value is on record as “resistant” and the “growth of N. brasiliensis” value is “pronounced growth”. Besides, the LD90 in assay [4] (37°C, 16 h) was above 64 µg/mL.
`CC[C@H](C)[C@H](N)C(=O)N[C@@H](CC(C)C)C(=O)N1CCC[C@H]1C(=O)N[C@@H](Cc1c[nH]c2ccccc12)C(=O)N[C@@H](CCCCN)C(=O)N[C@@H](Cc1c[nH]c2ccccc12)C(=O)N1CCC[C@H]1C(=O)N[C@@H](Cc1c[nH]c2ccccc12)C(=O)N[C@@H](Cc1c[nH]c2ccccc12)C(=O)N1CCC[C@H]1C(=O)N[C@@H](Cc1c[nH]c2ccccc12)C(=O)N[C@@H](CCCNC(=N)N)C(=O)N[C@@H](CCCNC(=N)N)C(N)=O` [indolicidin]: the “killing/CFU reduction in percent ± SD” value in assay [1] (ATCC 3318, 12 h) is on record as 96.7 ± 1.7%; in assay [2], 90.5 ± 3.4%; in assay [3] (ATCC 19247, 16 h) it was 99.1 ± 0.6%; in assay [4] (ATCC 19296, 16 h), 92.9 ± 2.1%. For the same molecule, the LD90 came out at 16 µg/mL in assay [1] (37°C, 12 h); 8 µg/mL in assay [2]; 64 µg/mL in assay [3] (37°C, 16 h); 64 µg/mL in assay [4] (37°C, 16 h).
For “GIINTLQKYYCRVRGGRCAVLSCLPKEEQIGKCSTRGRKCCRRKK (disulfide 11-40, 18-33, 23-41 (inferred)) [hBD-3]”, the “killing/CFU reduction in percent ± SD” value is on record as 92.5 ± 5.3% in assay [1] (ATCC 3318, 12 h) and 95.2 ± 1.7% in assay [2]. Further, the LD90 is 16 µg/mL in assay [1] (37°C, 12 h); 16 µg/mL in assay [2]; above 64 µg/mL in assay [3] (37°C, 16 h); above 64 µg/mL in assay [4] (37°C, 16 h). The “antinocardial activity (in words)” value is reported as “more potent against N. nova than levofloxacin” in assay [2], “did not show antinocardial activity” in assay [3] (16 h) and “resistant” in assay [4] (16 h). For the same molecule, the “growth of N. brasiliensis” value in assay [4] (16 h) is given as “stronger growth”.

For the origin of these results see article PMC2834671, “Differential activity of innate defense antimicrobial peptides against Nocardia species” (BMC Microbiology, 2010).
